Assay results reported in ChEMBL document CHEMBL3872281, “A one-pot laccase-catalysed synthesis of coumestan derivatives and their anticancer activity” (Bioorg Med Chem, 2017).

What was measured:
[1] = Cytotoxicity against human MCF7 cells assessed as cell growth inhibition after 48 hrs by SRB assay; assay type: functional; details: MCF7, 48 h; for CC50: read-out: LC50 (the source's name)
[2] = Cytotoxicity against human TK10 cells assessed as cell growth inhibition after 48 hrs by SRB assay; assay type: functional; details: TK-10, 48 h; for CC50: read-out: LC50 (the source's name)
[3] = Cytotoxicity against human UACC62 cells assessed as cell growth inhibition after 48 hrs by SRB assay; assay type: functional; details: UACC-62, 48 h
UACC-62 = assay: Potency index, ratio of etoposide TGI to compound TGI for human UACC62 cells; assay type: functional
[4] = target: T1, Arachidonate 5-lipoxygenase (Sus scrofa) (UniProt K7GQZ4); assay: Potency index, ratio of coumestrol IC50 to compound IC50 for 5-lipoxygenase in pig leukocytes; assay type: cell-based
T1 sequence (whole entry): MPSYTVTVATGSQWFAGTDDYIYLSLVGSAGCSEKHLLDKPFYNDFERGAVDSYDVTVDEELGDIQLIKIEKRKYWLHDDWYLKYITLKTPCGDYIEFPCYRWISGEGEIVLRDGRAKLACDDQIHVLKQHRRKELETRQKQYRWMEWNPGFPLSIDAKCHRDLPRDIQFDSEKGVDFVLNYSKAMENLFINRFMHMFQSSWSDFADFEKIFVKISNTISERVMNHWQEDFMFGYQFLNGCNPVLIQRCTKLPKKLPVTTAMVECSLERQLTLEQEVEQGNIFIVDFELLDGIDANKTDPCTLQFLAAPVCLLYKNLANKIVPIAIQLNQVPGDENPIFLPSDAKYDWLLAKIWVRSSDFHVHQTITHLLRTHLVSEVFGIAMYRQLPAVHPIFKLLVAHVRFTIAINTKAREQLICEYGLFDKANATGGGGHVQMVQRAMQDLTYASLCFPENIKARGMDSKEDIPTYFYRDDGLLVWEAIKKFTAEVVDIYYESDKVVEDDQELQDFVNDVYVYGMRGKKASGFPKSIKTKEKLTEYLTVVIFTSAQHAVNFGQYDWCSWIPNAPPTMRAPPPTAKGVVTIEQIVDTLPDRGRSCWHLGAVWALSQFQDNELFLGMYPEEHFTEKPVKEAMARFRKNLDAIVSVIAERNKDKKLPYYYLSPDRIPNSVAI

[5] = target: T2, Arachidonate 5-lipoxygenase (Sus scrofa, UniProt K7GQZ4); assay: Inhibition of 5-lipoxygenase in pig leukocytes using arachidonic acid as substrate; assay type: cell-based
T2 sequence (K7GQZ4 whole entry): T1 sequence (whole entry)

Row | Structure (SMILES) | GI50 [1] | TGI [1] | CC50 [1] | GI50 [2] | TGI [2] | CC50 [2] | GI50 [3] | LC50 (concentration giving 50% net cell kill) [3] | TGI [3] | Ratio (UACC-62) | Ratio IC50 [4] | IC50 [5]
1 | Cc1c(O)c(O)cc2c1oc1c3cc(Cl)ccc3oc(=O)c21 | 63.1 µM | > 100 µM | > 100 µM | 58.1 µM | > 100 µM | > 100 µM | 39.7 µM | > 100 µM | 73.6 µM | – | – | –
2 | Oc1ccccc1O [CATECHOL] | 52.4 µM | > 100 µM | > 100 µM | 68 µM | > 100 µM | > 100 µM | 45 µM | – | > 100 µM | – | – | –
3 | Cc1c(O)c(O)cc2c1oc1c3ccccc3oc(=O)c21 | 54.9 µM | > 100 µM | > 100 µM | > 100 µM | > 100 µM | > 100 µM | 55.6 µM | > 100 µM | > 100 µM | – | – | –
4 | Cc1cc2oc(=O)c3c4cc(O)c(O)c(C)c4oc3c2cc1C | 87.3 µM | > 100 µM | > 100 µM | > 100 µM | > 100 µM | > 100 µM | 67.6 µM | > 100 µM | > 100 µM | – | – | –
5 | COc1c(O)c(O)cc2c1oc1c3cc(C)ccc3oc(=O)c21 | 65.8 µM | > 100 µM | > 100 µM | 88.6 µM | > 100 µM | > 100 µM | 49.9 µM | > 100 µM | > 100 µM | – | – | –
6 | Cc1cccc(O)c1O | 27.3 µM | 64.3 µM | > 100 µM | 38.1 µM | 75.8 µM | > 100 µM | 15.2 µM | – | 46.2 µM | – | – | –
7 | Cc1cc2oc(=O)cc(O)c2cc1C | 82.3 µM | > 100 µM | > 100 µM | > 100 µM | > 100 µM | > 100 µM | 80.5 µM | > 100 µM | > 100 µM | – | – | –
8 | O=c1oc2ccc(Cl)cc2c2oc3c(F)c(O)c(O)cc3c12 | 70.3 µM | > 100 µM | > 100 µM | > 100 µM | > 100 µM | > 100 µM | 83.7 µM | > 100 µM | > 100 µM | – | – | –
9 | COc1c(O)c(O)cc2c1oc1c3ccccc3oc(=O)c21 | 87.3 µM | > 100 µM | > 100 µM | > 100 µM | > 100 µM | > 100 µM | 67.6 µM | > 100 µM | > 100 µM | – | – | –
10 | Cc1ccc2oc(=O)cc(O)c2c1 | 84.4 µM | > 100 µM | > 100 µM | > 100 µM | > 100 µM | > 100 µM | 84.7 µM | – | > 100 µM | – | – | –
11 | Cc1cc2oc(=O)c3c4cc(O)c(O)c(F)c4oc3c2cc1C | 77.7 µM | > 100 µM | > 100 µM | > 100 µM | > 100 µM | > 100 µM | 91.8 µM | > 100 µM | > 100 µM | – | – | –
12 | O=c1cc(O)c2ccccc2o1 [4-HYDROXYCOUMARINS] | 95.3 µM | > 100 µM | > 100 µM | > 100 µM | > 100 µM | > 100 µM | 83.6 µM | – | > 100 µM | – | – | –
13 | COc1c(O)c(O)cc2c1oc1c3cc(C)c(C)cc3oc(=O)c21 | 29.5 µM | 95.4 µM | > 100 µM | 26.8 µM | 66.4 µM | > 100 µM | 18.1 µM | 75.3 µM | 46.7 µM | – | – | –
14 | O=c1oc2ccccc2c2oc3cc(O)c(O)cc3c12 | 39.4 µM | 77.3 µM | > 100 µM | 28.7 µM | 88.4 µM | > 100 µM | 33.3 µM | 90.6 µM | 61.9 µM | – | – | –
15 | COc1cccc(O)c1O [3-METHOXYCATECHOL] | 27.6 µM | 60.7 µM | 93.8 µM | 51.6 µM | 97 µM | > 100 µM | 23.6 µM | – | 50.3 µM | – | – | –
16 | Cc1ccc2oc(=O)c3c4cc(O)c(O)c(C)c4oc3c2c1 | 7.96 µM | 78.2 µM | > 100 µM | 48.8 µM | > 100 µM | > 100 µM | 5.35 µM | 89.9 µM | 9.82 µM | 5 | – | –
17 | O=c1oc2ccc(Cl)cc2c2oc3cc(O)c(O)cc3c12 | 47.5 µM | 89.8 µM | > 100 µM | 53.4 µM | > 100 µM | > 100 µM | 36.3 µM | > 100 µM | 68.6 µM | – | – | –
18 | Cc1cc2oc(=O)c3c4cc(O)c(O)cc4oc3c2cc1C | 46 µM | 86.3 µM | > 100 µM | 53.3 µM | > 100 µM | > 100 µM | 38.3 µM | > 100 µM | 80.1 µM | – | – | –
19 | COc1cc(O)c2c(c1)oc(=O)c1c3cc(O)c(O)cc3oc21 [WEDELOLACTONE] | – | – | – | – | – | – | – | – | – | – | 40 | 2.5 µM
20 | Oc1cccc(F)c1O | 57.6 µM | > 100 µM | > 100 µM | 84.7 µM | > 100 µM | > 100 µM | 35.2 µM | – | 78.4 µM | – | – | –
21 | O=c1oc2ccccc2c2oc3c(F)c(O)c(O)cc3c12 | 53.1 µM | > 100 µM | > 100 µM | > 100 µM | > 100 µM | > 100 µM | 67.6 µM | > 100 µM | > 100 µM | – | – | –
22 | Cc1ccc2oc(=O)c3c4cc(O)c(O)cc4oc3c2c1 | 54.7 µM | > 100 µM | > 100 µM | 52 µM | > 100 µM | > 100 µM | 11.2 µM | 90.7 µM | 50.9 µM | – | – | –
23 | COc1cc([C@@H]2c3cc4c(cc3[C@@H](O[C@@H]3O[C@@H]5CO[C@@H](C)O[C@H]5[C@H](O)[C@H]3O)[C@H]3COC(=O)[C@H]23)OCO4)cc(OC)c1O [ETOPOSIDE] | 0.56 µM | > 100 µM | > 100 µM | – | – | > 100 µM | 0.89 µM | – | – | – | – | –
24 | O=c1cc(O)c2cc(Cl)ccc2o1 | 83.3 µM | > 100 µM | > 100 µM | > 100 µM | > 100 µM | > 100 µM | 88.7 µM | > 100 µM | > 100 µM | – | – | –
